# Measured values published in patent US6251914A, “Cycloalkyl substituted imidazoles” (SmithKline Beecham Corporation, priority 1999, dated 2001).
# Structures can show the parent of a compound that is named as a salt.
# Tested on: IL-1 and TNF
# Experiment: not given
# Settings: cited from earlier work
row,SMILES,inhibition of IL-1 and TNF
1,Fc1ccc(-c2nc3n(c2-c2ccncc2)CCS3)cc1 [SK&F 86002],inhibiting IL-1 and TNF
2,C[S+]([O-])c1ccc(-c2nc(-c3ccncc3)c(-c3ccc(F)cc3)[nH]2)cc1 (stereo not drawn) [SB 203580],inhibiting IL-1 and TNF

# Molecular target: T1, p38 (Homo sapiens, UniProt Q16539)
# T1 construct: made in house; host or cells: yeast
# T1 sequence (Q16539 whole entry): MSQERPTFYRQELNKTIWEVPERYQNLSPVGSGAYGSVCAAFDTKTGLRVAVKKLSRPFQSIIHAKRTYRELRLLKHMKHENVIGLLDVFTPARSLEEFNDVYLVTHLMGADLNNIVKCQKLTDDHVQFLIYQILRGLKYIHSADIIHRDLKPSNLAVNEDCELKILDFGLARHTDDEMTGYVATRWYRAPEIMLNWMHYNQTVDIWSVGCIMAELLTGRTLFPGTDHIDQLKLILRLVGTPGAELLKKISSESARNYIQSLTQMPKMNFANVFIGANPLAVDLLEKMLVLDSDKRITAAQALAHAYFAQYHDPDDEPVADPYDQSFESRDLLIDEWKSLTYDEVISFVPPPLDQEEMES
# Experiment: CSBP Kinase Assay, minor variation (activated p38, T669 peptide, 96 well plate)
# Type: biochemical
# Settings: 0.17 mM ATP, 0.67 mM T669 peptide, 24 nM p38, 37° C., 25 min; read-out: positive inhibitory activity, IC50 in kinase assay (minor variation)
# Procedure: A minor variation of the above assay is shown below:
# Reactions were carried in round bottom 96 well plate (from Corning) in a […]. Reactions contained (in final concentration): 25 mM Hepes, pH7.5; 8 mM MgCl2; 0.17 mM ATP (the Km[ATP] of p38 (see Lee et al., Nature 300, n72 pg 639-746 (December 1994)); 2.5 uCi of [g-32P]ATP; 0.2 mM sodium orthovanadate; 1 mM DTT; 0.1% BSA; 10% glycerol; 0.67 mM T669 peptide; and 24 nM of yeast-expressed, activated and purified p38. Reactions were initiated by the addition of [gamma-32P]Mg/ATP, and incubated for 25 min. at 37° C. Inhibitors (dissolved in DMSO) were incubated with the reaction mixture on ice for 30 minutes prior to adding the 32P-ATP. Final DMSO concentration was 0.16%. Reactions were terminated by adding 10 ul of 0.3 M phosphoric acid, and phosphorylated peptide was isolated from the reactions by capturing it on p81 phosphocellulose filters. Filters were washed with 75 mM phosphoric acids, and incorporated 32P was quantified using beta scintillation counter. Under these conditions, the specific activity of p38 was 400-450 pmol/pmol enzyme, and the activity was linear for up to 2 hr of incubation. The kinase activity values were obtained after subtracting values generated in the absence of substrate which were 10-15% of total values.
row,SMILES,IC50
1,"COc1nccc(-c2c(-c3ccc(F)cc3)ncn2[C@H]2CC[C@H](OCCN(C)C)CC2)n1 [Example 18, trans-4-(4-Fuorophenyl)-1-[4-(2-(N,N-dimethylamino)ethoxy)cyclohexyl]-5-[(2-methoxy)pyrimidine-4-yl]-imidazole hydrochloride]",< 50 µM
2,"COc1nccc(-c2c(-c3ccc(F)cc3)ncn2C2CCCCCC2)n1 [Example 16, 1-Cycloheptyl-4-(4-fluorophenyl)-5-(2-methoxypyrimidin-4-yl)imidazole]",< 50 µM
3,"COc1nccc(-c2c(-c3ccc(F)cc3)ncn2[C@H]2CC[C@H](OCSC)CC2)n1 [Example 17, trans-4-(4-Fluorophenyl)-5-(2-methoxypyrimidin-4-yl)-1-[4-(methylthiomethoxy)cyclohexyl]imidazole]",< 50 µM
4,"COc1nccc(-c2c(-c3ccc(F)cc3)ncn2C2CCC2)n1 [Example 13, 1-Cyclobutyl-4-(4-fluorophenyl)-5-(2-methoxypyrimidin-4-yl)imidazole]",< 50 µM

# Molecular target: T2, CSBP2 (Homo sapiens, UniProt Q16539)
# T2 construct: made in house; host or cells: yeast
# T2 sequence (Q16539 whole entry): as above
# Experiment: CSBP Kinase Assay (32P transfer to EGFR-derived peptide T669)
# Type: biochemical
# Settings: 170 uM ATP, 0.4 mM T669 peptide, 30° C., 10 min; read-out: positive inhibitory activity, IC50 in CSBP kinase assay
# Procedure: This assay measures the CSBP-catalyzed transfer of ^32 P from […] to threonine residue in an epidermal growth factor receptor (EGFR)-derived peptide (T669) with the following sequence: […] (residues 661-681). (See Gallagher et al., "Regulation of Stress Induced Cytokine Production by Pyridinyl Imidazoles: Inhibition of CSPB Kinase", BioOrganic & Medicinal Chemistry, to be published 1996).
# Kinase reactions (total volume 30 ul) contain: 25 mM Hepes buffer, pH 7.5; 10 mM MgCl2; 170 uM ATP^(1); 10 uM Na ortho vanadate; 0.4 mM T669 peptide; and 20-80 ng of yeast-expressed purified CSBP2 (see Lee et al., Nature 300, n(72), 739-746 (December 1994)). Compounds (5 ul from [6×] stock^(2)) are pre-incubated with the enzyme and peptide for 20 min. on ice prior to starting the reactions with 32P/MgATP. Reactions are incubated at 30° C. for 10 min. and stopped by adding 10 ul of 0.3 M phosphoric acid. 32P-labeled peptide is separated on phosphocellulose (Wattman, p81) filters by spotting 30 ul reaction mixture. Filters are washed 3 times with 75 mM phosphoric acid followed by 2 washes with H2 O, and counted for 32P.
# ^(2) Compounds are usually dissolved in DMSO and are diluted in 25 mM HEPES buffer to get final concentration of DMSO of 0.17%.
row,SMILES,IC50
1,"COc1nccc(-c2c(-c3ccc(F)cc3)ncn2C2CCCCC2)n1 [Example 12, 1-Cyclohexyl-4-(4-fluorophenyl)-5-(2-methoxypyrimidin-4-yl)imidazole]",< 50 µM
2,"COc1nccc(-c2c(-c3ccc(F)cc3)ncn2C2CCCC2)n1 [Example 15, 1-Cyclopentyl-4-(4-fluorophenyl)-5-(2-methoxypyrimidin-4-yl)imidazole]",< 50 µM
3,"CCOc1nccc(-c2c(-c3ccc(F)cc3)ncn2[C@H]2CC[C@H](O)CC2)n1 [Example 9, trans-1-(4-Hydroxycyclohexyl)-4-(4-fluorophenyl)-5-[(2-ethoxy)pyrimidine-4-yl]imidazole]",< 50 µM
4,"COc1nccc(-c2c(-c3ccc(F)cc3)ncn2C2CC2)n1 [Example 14, 1-Cyclopropyl-4-(fluorophenyl)-5-(2-methoxypyrimidin-4-yl)imidazole]",< 50 µM

# Tested on: IL-6, IL-8, GM-CSF and COX-2
# Experiment: not given
# Settings: cited from earlier work
row,SMILES,"synthesis of pro-inflammatory proteins including IL-6, IL-8, GM-CSF and COX-2"
1,Fc1ccc(-c2nc3n(c2-c2ccncc2)CCS3)cc1 [SK&F 86002],decrease the synthesis
2,C[S+]([O-])c1ccc(-c2nc(-c3ccncc3)c(-c3ccc(F)cc3)[nH]2)cc1 (stereo not drawn) [SB 203580],decrease the synthesis
